One experiment deals with SARS-CoV-2 RBD (Severe acute respiratory syndrome coronavirus 2, UniProt P0DTC2). As to the kind of experiment: biochemical. It is filed as binding.
Experiment [1] has as its system SARS-CoV-2 S protein-pseudoviruses, 293T-ACE2 cells. As to the kind of experiment: microbe, parasite or virus in culture. It is filed as cell-based.
Experiment [2] concerns the target ACE2-RBD interaction (human ACE2 / SARS-CoV-2 S protein RBD) (Severe acute respiratory syndrome coronavirus 2, UniProt P0DTC2). As to the kind of experiment: biochemical. Type of experiment: binding, human; SARS-CoV-2.
The next experiment deals with ACE2 (Homo sapiens, UniProt Q9BYF1). It is filed as binding. Conditions: SPR, two-fold serial dilutions.
The subject of experiment [3] is SARS-CoV-2 S protein-pseudoviruses, Calu-3 cells. It is filed as cell-based.
[4] abbreviates: Severe acute respiratory syndrome coronavirus 2, 293T/ACE2, read-out: IC50, infectivity of S protein-pseudoviruses to 293T-ACE2 cells.

Like-named read-outs stand apart in the source and are kept apart here.

Results on four molecules are retold here after publication PMC8178536 (Journal of Ethnopharmacology, 2021).

Chain of ACE2 (Q9BYF1 18-740): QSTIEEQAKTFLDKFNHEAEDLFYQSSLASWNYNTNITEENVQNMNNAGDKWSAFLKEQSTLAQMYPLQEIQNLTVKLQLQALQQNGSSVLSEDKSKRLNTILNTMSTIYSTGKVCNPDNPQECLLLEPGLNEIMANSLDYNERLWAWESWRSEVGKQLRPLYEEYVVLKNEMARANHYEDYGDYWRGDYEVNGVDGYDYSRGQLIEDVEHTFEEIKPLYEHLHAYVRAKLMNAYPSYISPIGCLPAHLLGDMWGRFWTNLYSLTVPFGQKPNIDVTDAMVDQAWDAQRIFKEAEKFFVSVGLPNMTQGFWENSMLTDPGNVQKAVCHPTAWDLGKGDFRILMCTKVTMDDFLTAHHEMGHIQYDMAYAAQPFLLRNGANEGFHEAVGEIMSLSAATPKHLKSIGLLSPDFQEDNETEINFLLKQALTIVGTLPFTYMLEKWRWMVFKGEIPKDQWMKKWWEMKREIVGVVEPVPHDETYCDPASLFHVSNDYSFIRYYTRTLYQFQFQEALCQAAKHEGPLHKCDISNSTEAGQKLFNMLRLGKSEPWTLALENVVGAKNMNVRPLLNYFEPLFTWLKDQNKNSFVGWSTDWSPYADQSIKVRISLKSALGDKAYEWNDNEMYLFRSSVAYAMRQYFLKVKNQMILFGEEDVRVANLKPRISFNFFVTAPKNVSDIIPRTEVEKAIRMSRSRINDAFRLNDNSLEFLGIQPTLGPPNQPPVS

As a reminder, the Kd is a measure of binding affinity in units of concentration. For orientation: IC50 means the concentration at which inhibition is half-maximal. At SARS-CoV-2 RBD, `O=C(O)c1cc(O)c2cc(O)ccc2n1` [Compound 1, 4,6-dihydroxyquinoline-2-carboxylic acid] yielded a Kd of 0.6 µM. The results for the IC50 in experiment [1] (setting [4]) and in experiment [2] were 1.09 µM and 0.58 µM, respectively.

`O=C(O)c1cc(O)c2ccccc2n1` [Compound 2, 4-hydroxyquinoline-2-carboxylic acid]: on SARS-CoV-2 RBD, the Kd is 5.28 µM. For the same molecule, the IC50 in experiment [1] (setting [4]) was 0.44 µM; in experiment [2], 0.07 µM. The “binding to immobilized ACE2” value at ACE2 is recorded as “low or no binding”. The “infectivity of SARS-CoV-2 S protein-pseudoviruses to Calu-3 cells” value in experiment [3] is “abolished the infectivity”.

`COc1ccc2nc(C(=O)O)cc(O)c2c1` [Compound 3, 4-hydroxy-6-methoxyquinoline-2-carboxylic acid] showed a Kd at SARS-CoV-2 RBD of 5.37 µM. Moreover, the IC50 in experiment [1] (setting [4]) is 0.75 µM; in experiment [2], 0.15 µM.

For soluble recombinant human ACE2, in experiment [1] (read-out: IC50, entry of S protein-pseudoviruses into 293T-ACE2 cells), the IC50 was 0.0696 µM.
